The source of these data is patent publication US9856279B2 (AGIOS PHARMACEUTICALS, INC, priority 2011, dated 2018).

pIC50: −log10 of the molar value.

Chain of IDH1 R132H (O75874 whole entry R132H): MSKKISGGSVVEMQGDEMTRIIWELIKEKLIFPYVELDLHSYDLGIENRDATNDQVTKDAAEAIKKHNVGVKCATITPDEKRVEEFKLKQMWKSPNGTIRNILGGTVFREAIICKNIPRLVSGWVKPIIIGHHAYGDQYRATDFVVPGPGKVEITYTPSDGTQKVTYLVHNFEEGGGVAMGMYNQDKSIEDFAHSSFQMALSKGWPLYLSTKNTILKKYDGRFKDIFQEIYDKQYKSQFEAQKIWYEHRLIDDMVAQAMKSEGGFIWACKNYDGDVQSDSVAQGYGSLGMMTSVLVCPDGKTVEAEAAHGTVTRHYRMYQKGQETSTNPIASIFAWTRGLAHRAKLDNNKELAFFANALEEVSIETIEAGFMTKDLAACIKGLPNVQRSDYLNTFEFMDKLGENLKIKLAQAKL

For the first experiment, the target named is IDH1 R132H (Homo sapiens, UniProt O75874, R132H). Kind of experiment: Assay for IDH1 R132H inhibitors (NADPH/aKG, resazurin detection). The format is biochemical. The note with it: Table 3; enzyme assay, 50 minutes at room temperature; read-out: IC50 (IDH1 R132H Inhibition). The protocol:
Assays were conducted in a volume of 76 μl assay buffer (150 mM NaCl, 10 mM MgCl2, 20 mM Tris pH 7.5, 0.03% bovine serum albumin) as follows in a standard 384-well plate: To 25 ul of substrate mix (8 uM NADPH, 2 mM aKG), 1 μl of test compound was added in DMSO. The plate was centrifuged briefly, and then 25 μl of enzyme mix was added (0.2 μg/ml IDH1 R132H) followed by a brief centrifugation and shake at 100 RPM. The reaction was incubated for 50 minutes at room temperature, then 25 μl of detection mix (30 μM resazurin, […]) was added and the mixture further incubated for 5 minutes at room temperature. The conversion of resazurin to resorufin was detected by fluorescent spectroscopy at Ex544 Em590 c/o 590.
By pIC50 is commonly meant −log10 of the IC50, conventionally taken in molar units. With `CC(C)c1nc(N2C[C@@H](C)N(C(=O)Cc3ccccc3)[C@@H](C)C2)c(C#N)cc1-c1ccccc1` [Compound 140, 2-((3S,5R)-3,5-dimethyl-4-(2-phenylacetyl)piperazin-1-yl)-6-isopropyl-5-phenylnicotinonitrile], the negative-log IC50 (pIC50) was 5.30 to 6.00. The same measure, in the same setting: the value for `COCCC(=O)N1CCN(c2nc(C(C)C)c(-c3ccc4c(c3)OCCO4)cc2C#N)C[C@H]1C` [Compound 233, (R)-5-(2,3-dihydrobenzo[b][1,4]dioxin-6-yl)-6-isopropyl-2-(4-(3-methoxypropanoyl)-3-methylpiperazin-1-yl)nicotinonitrile] was 5.30 to 6.00; that for `Cc1ccc(-c2cc(C#N)c(N3CCN(C(=O)c4ccoc4)[C@H](C)C3)nc2C(C)C)cc1` [Compound 179, (R)-2-(4-(furan-3-carbonyl)-3-methylpiperazin-1-yl)-6-isopropyl-5-p-tolylnicotinonitrile] was 5.30 to 6.00.

On to `COc1ccccc1-c1cc(C(C)C)nc(N2CCN(C(=O)c3ccco3)C(C)C2)c1C#N` (stereo not drawn) [Compound 147, 2-(4-(furan-2-carbonyl)-3-methylpiperazin-1-yl)-6-isopropyl-4-(2-methoxyphenyl)nicotinonitrile], for which the pIC50 was 4.82 to 5.30.

Regarding `CC(C)c1cc(-c2cccc(F)c2)c(C#N)c(N2CC(C)N(C(=O)c3ccco3)C(C)C2)n1` (stereo not drawn) [Compound 136, 4-(3-fluorophenyl)-2-(4-(furan-2-carbonyl)-3,5-dimethylpiperazin-1-yl)-6-isopropylnicotinonitrile], the negative logarithm of the IC50 (pIC50) was 4.82 to 5.30.

Staying with this experiment, now noted: enzyme assay of Example 12; read-out: IDH1R132H IC50.
On to `COCCC(=O)N1CCN(c2nc(C3CC3)c(-c3c(OC)cccc3OC)cc2C#N)C[C@H]1C` [Compound 316, (R)-6-cyclopropyl-5-(2,6-dimethoxyphenyl)-2-(4-(3-methoxypropanoyl)-3-methylpiperazin-1-yl)nicotinonitrile], for which the pIC50 is 6.00 to 6.30. On the same count and under the same terms, the same measure for `C=Cc1ccnc(Nc2cc(C#N)c(N3CCN(C(=O)CN4CCCC4=O)[C@H](C4CC4)C3)nc2C2CC2)c1` [Compound 816, (R)-6-cyclopropyl-2-(3-cyclopropyl-4-(2-(2-oxopyrrolidin-1-yl)acetyl)piperazin-1-yl)-5-((4-vinylpyridin-2-yl)amino)nicotinonitrile]: 6.00 to 6.30; for `COCCC(=O)N1CCN(c2nc(C3CC3)c(-c3cccc4nonc34)cc2C#N)C[C@H]1C` [Compound 437, (R)-5-benzo[1,2,5]oxadiazol-4-yl-6-cyclopropyl-2-[4-(3-methoxy-propionyl)-3-methyl-piperazin-1-yl]-nicotinonitrile]: 6.00 to 6.30; for `N#Cc1cc(-c2ccc3c(c2)C(=O)C(=O)N3)c(C2CC2)nc1N1CCN(C(=O)C2CC2)[C@H](C2CC2)C1` [Compound 504, (R)-2-(4-(cyclopropanecarbonyl)-3-cyclopropylpiperazin-1-yl)-6-cyclopropyl-5-(2,3-dioxoindolin-5-yl)nicotinonitrile]: 6.00 to 6.30. In the case of `N#Cc1cc(-c2ccnc(N)n2)c(C2CC2)nc1N1CCN(C(=O)C2CC2)[C@H](C2CC2)C1` [Compound 507, (R)-5-(2-aminopyrimidin-4-yl)-2-(4-(cyclopropanecarbonyl)-3-cyclopropylpiperazin-1-yl)-6-cyclopropylnicotinonitrile], the pIC50 was 6.00 to 6.30.

Consider `COCCC(=O)N1CCN(c2nc(C3CC3)c(-c3csc(NC(=O)OC(C)(C)C)n3)cc2C#N)C[C@H]1C` [Compound 395, (R)-(4-{5-cyano-2-cyclopropyl-6-[4-(3-methoxy-propionyl)-3-methyl-piperazin-1-yl]-pyridin-3-yl}-thiazol-2-yl)-carbamic acid tert-butyl ester], for which the pIC50 is 6.00 to 6.30. On the same count and under the same terms, the value for `CCCOc1ccc(-c2c(C3CC3)nc(N3CCN(C(=O)CCOC)[C@H](C)C3)c(C#N)c2C)cc1` [Compound 337, (R)-6-cyclopropyl-2-[4-(3-methoxy-propionyl)-3-methyl-piperazin-1-yl]-4-methyl-5-(4-propoxy-phenyl)-nicotinonitrile] was 6.00 to 6.30.
